Assay results: PMC3083694, “Effects of Intermediates between Vitamins K2 and K3 on Mammalian DNA Polymerase Inhibition and Anti-Inflammatory Activity” (International Journal of Molecular Sciences, 2011)

What was measured:
[1] = tested on: nuclear translocation of NF-κB p65 in RAW264.7 cells; assay: LPS-induced nuclear translocation of NF-κB p65 (Western blot); type: cell-based, mouse; settings: 10 μM MK-2 30 min, then 100 ng/mL LPS 30 min, LPS alone 4.47-fold
Description: RAW264.7 cells on a 6-well plate at 5 × 10^5 cells/well were incubated with 10 μM of MK-2 or DMSO (1 μL/mL) as a vehicle control for 30 min, followed by treatment with 100 ng/mL of LPS for 30 min. After treatment, cells were harvested with lysis buffer consisting of 10 mM Hepes (pH 7.9), 10 mM KCl, 1.5 mM MgCl2 and 0.5 mM DTT containing protease inhibitors (1 mM phenylmethylsulfonyl fluoride [PMSF], 5 μg/mL of leupeptin and 5 μg/mL of aprotinin) and phosphatase inhibitors (10 mM NaF and 1 mM Na3VO4) and stood on ice for 15 min with occasional mixing. The mixture was centrifuged at 1000 × g for 10 min at 4 °C. […] The protein concentration was measured by using a bicinchoninic acid (BCA) assay kit in accordance with the manufacturer’s protocol. […]
The nuclear proteins (30–50 μg of protein) were boiled in a quarter-volume of sample buffer (1 M Tris-HCl [pH 7.5], 640 mM 2-mercaptoethanol, 0.2% bromphenol blue, 4% SDS and 20% glycerol) and then separated on 10% SDS polyacrylamide gels. […] The protein-antibody complex was visualized with ChemiLumiONE (Nacalai Tesque, Kyoto, Japan) and detected using an Image Reader (LAS-3000 Imaging System, Fuji Photo Film, Tokyo, Japan). The intensity of each band was analyzed using ImageJ, which was developed at the National Institute of Health.

[2] = target: Calf Terminal deoxynucleotidyl transferase (Bos taurus, UniProt P06526); assay: DNA polymerase activity assay, calf TdT; type: biochemical; settings: X-family pol; read-out: IC50 Value of MK-2, Calf Terminal deoxynucleotidyl transferase
Description: (§1) Pols from mammals, a fish (cherry salmon), an insect (fruit fly) and a plant (cauliflower) were purified, and prokaryotic pols and other DNA metabolic enzymes, such as T7 RNA polymerase, T4 polynucleotide kinase and bovine deoxyribonuclease I, were purchased as described in our previous report. The activities of all pols and other DNA metabolic enzymes were measured as described in previous reports.
(§2) The components of the pol assay were poly(dA)/oligo(dT)18 and dTTP as the DNA template-primer and 2′-deoxyribonucleoside 5′-triphosphate (dNTP) substrate, respectively. VK2, VK3, and their synthesized derivatives (i.e., MK-3, MK-2 and MK-1) were dissolved in dimethyl sulfoxide (DMSO) at various concentrations and sonicated for 30 s. The sonicated samples (4 μL) were mixed with 16 μL of each pol enzyme (final amount, 0.05 units) in 50 mM Tris-HCl (pH 7.5) containing 1 mM dithiothreitol, 50% glycerol and 0.1 mM EDTA, and kept at 0 °C for 10 min. […] Activity without the inhibitor was considered to be 100%, and the activity remaining at each concentration of inhibitor was determined relative to this value. […]

[3] = target: Cherry salmon DNA polymerase δ (Oncorhynchus masou, UniProt Z9UCE0HTX2); assay: DNA polymerase activity assay, cherry salmon pol δ; type: biochemical; settings: fish pol; read-out: IC50 Value of MK-2, Cherry salmon DNA polymerase δ
Description: as §1, §2

Human DNA polymerase δ = target: T1, Human DNA polymerase δ (Homo sapiens, UniProt P28340); assay: DNA polymerase activity assay, human pol δ; type: biochemical; settings: B-family pol; read-out: IC50 Value of MK-2, Human DNA polymerase δ
T1 construct: made in house
Description: as §1, §2

T7 RNA polymerase = target: T2, T7 RNA polymerase (Escherichia phage T7, UniProt P00573); assay: DNA metabolic enzyme assay, T7 RNA polymerase; type: biochemical; settings: other DNA metabolic enzyme; read-out: IC50 Value of MK-2, T7 RNA polymerase
T2 construct: purchased
Description: as §1

T1 sequence (P28340 whole entry): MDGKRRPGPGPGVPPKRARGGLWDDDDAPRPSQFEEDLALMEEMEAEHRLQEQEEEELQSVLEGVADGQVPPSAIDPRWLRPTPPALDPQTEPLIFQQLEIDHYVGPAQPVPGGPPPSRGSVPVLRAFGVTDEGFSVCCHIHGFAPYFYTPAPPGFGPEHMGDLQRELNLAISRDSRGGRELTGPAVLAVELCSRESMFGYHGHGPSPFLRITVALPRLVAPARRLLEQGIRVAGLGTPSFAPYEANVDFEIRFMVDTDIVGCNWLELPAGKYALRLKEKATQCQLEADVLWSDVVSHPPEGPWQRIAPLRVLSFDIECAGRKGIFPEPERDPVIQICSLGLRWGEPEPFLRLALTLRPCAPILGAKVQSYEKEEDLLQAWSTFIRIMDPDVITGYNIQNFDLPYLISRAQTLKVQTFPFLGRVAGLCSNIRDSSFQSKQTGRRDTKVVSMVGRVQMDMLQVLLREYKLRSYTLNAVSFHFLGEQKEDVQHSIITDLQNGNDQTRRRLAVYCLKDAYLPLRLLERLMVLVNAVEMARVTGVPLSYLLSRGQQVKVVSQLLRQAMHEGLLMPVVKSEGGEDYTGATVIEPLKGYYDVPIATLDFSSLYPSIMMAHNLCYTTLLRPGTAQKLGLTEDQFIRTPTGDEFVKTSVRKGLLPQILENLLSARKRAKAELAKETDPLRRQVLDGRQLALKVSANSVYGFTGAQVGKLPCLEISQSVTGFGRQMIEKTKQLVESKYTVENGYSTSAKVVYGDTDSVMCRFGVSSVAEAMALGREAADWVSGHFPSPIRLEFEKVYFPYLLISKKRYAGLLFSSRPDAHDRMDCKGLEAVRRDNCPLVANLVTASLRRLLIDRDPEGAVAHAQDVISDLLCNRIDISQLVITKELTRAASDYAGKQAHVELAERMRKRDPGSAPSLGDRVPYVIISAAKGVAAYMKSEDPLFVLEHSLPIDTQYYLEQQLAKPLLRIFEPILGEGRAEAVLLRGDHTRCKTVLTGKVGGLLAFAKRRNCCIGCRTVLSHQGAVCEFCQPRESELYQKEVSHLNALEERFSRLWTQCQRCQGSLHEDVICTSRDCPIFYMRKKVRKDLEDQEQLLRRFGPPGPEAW
Chain of Cherry salmon DNA polymerase δ (Z9UCE0HTX2 1-856): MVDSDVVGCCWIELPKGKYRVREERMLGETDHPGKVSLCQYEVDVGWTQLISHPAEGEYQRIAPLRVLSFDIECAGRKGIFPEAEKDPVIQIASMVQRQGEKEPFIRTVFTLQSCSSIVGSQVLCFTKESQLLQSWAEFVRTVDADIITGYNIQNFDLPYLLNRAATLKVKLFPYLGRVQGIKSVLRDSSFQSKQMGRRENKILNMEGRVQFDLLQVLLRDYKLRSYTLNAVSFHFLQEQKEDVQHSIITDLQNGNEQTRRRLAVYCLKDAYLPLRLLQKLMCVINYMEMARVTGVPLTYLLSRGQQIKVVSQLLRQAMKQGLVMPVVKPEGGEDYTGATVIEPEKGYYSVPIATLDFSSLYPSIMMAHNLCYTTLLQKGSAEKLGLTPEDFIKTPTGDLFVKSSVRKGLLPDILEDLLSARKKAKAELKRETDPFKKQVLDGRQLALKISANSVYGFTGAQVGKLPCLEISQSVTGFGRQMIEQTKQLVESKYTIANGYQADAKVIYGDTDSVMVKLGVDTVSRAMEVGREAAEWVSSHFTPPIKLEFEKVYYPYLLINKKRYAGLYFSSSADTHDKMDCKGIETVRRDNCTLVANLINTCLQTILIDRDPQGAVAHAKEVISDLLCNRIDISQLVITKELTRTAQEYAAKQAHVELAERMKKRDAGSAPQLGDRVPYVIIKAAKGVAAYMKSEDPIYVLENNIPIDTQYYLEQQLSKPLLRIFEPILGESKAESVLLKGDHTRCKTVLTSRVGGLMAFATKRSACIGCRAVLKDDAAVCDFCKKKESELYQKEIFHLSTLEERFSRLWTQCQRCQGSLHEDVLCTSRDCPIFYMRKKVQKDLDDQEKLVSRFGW
T2 sequence (P00573 whole entry): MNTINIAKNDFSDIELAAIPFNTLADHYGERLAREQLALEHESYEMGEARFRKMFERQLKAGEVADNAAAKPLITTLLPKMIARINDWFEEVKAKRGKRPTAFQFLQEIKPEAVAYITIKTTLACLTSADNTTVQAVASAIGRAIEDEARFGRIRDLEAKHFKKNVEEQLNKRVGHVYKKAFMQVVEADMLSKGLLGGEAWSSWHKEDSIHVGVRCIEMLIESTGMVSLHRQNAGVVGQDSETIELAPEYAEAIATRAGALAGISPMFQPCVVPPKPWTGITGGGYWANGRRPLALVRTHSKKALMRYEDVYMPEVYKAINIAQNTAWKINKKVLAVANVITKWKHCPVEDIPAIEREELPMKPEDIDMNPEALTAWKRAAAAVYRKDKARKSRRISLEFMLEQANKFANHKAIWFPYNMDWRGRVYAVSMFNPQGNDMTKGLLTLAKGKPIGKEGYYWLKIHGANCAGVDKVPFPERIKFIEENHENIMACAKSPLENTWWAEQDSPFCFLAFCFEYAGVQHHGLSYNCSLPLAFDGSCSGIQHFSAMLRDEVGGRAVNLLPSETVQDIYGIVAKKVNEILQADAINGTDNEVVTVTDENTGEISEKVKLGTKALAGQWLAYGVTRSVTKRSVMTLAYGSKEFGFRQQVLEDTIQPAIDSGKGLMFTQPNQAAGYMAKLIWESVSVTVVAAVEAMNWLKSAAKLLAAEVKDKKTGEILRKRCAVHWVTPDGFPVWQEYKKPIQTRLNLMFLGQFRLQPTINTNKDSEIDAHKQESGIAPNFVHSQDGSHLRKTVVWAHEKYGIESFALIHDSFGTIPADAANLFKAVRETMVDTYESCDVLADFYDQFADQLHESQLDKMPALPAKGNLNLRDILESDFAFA
Chain of Calf Terminal deoxynucleotidyl transferase (P06526 whole entry): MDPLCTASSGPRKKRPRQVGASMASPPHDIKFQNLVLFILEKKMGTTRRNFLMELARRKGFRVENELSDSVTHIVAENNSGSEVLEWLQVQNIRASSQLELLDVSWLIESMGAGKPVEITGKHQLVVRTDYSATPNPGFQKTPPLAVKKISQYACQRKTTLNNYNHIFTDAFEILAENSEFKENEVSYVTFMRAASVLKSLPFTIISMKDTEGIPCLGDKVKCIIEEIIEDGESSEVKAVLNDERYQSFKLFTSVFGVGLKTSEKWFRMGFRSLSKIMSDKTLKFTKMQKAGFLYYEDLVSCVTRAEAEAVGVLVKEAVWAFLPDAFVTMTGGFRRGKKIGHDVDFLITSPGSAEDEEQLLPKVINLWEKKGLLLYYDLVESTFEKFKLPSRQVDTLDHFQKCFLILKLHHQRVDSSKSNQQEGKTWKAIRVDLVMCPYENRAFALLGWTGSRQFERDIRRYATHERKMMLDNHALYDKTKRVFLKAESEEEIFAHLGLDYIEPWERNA

Q: Which “LPS-stimulated nuclear translocation of NF-κB p65 relative to treatment without LPS” value [1] does the source give for `CC(C)=CCC/C(C)=C/CC1=C(C)C(=O)c2ccccc2C1=O` [MK-2] here?
A: 2.04 fold

Q: And the IC50 [2]?
A: 29.4 ± 1.7 µM

Q: And the IC50 [3]?
A: 32.5 ± 1.9 µM

Q: And the IC50 (Human DNA polymerase δ)?
A: 29.1 ± 1.8 µM

Q: What about the IC50 (T7 RNA polymerase) of the same molecule?
A: > 200 µM
